Consider one molecule from patent US20060093617A1, “Peptides for inducing a CTL and/or HTL response to hepatitis C virus” (Innogenetics, N.V., priority 2004, published 2006).

Where a SMILES comes first, the peptide text is derived from it.

What all share (assay): Competition binding assay using soluble HLA class II
One experiment deals with T1, DRB1*0301 (Homo sapiens, UniProt P01903+P01911, A100K/A102G/A103R/A169T/F55Y/I96L/K41T/L162R/M171V/P40S/Q125H/Q178H/Q39Y/R42S/S66N/T106N/T262R/W38E/Y61H).
T1 construct: endogenous in cells; HLA-DR was extracted from cell lysates on an LB3.1 antibody column

The target in a further experiment is T2, DRB1*0401 (Homo sapiens, UniProt P01903+P01911, A100K/A169T/F76Y/I96L/K127E/L162R/M171V/N62H/P40V/Q125Y/R42H/S133A/S149N/S66Y/V115G/V209L/W38E).
T2 construct: endogenous in cells; host or cells: cell lysate
The conditions noted are these: HLA-DRB1*0401; individual experiment or mean of several.

The target of another experiment is T3, DRB1*0101 (Homo sapiens, UniProt P01903+P01911, A100R/D57E/F55L/F60I/F76Y/I96L/L162R/M171V/P40L/Q125E/R42F/V115G/Y59C).
T3 construct: endogenous in cells; host or cells: cell lysate

One may read the IC50 as the concentration that gives 50% inhibition. A low value points to greater potency in that assay. For the molecule `CC(C)C[C@H](NC(=O)[C@@H](NC(=O)[C@@H](NC(=O)[C@@H](N)CC(C)C)C(C)C)C(C)C)C(=O)N[C@@H](C)C(=O)N[C@H](C(=O)N[C@@H](C)C(=O)N[C@H](C(=O)N1CCC[C@H]1C(=O)N1CCC[C@H]1C(=O)NCC(=O)N[C@@H](CO)C(=O)N[C@H](C(=O)N[C@H](C(=O)N[C@H](C(=O)O)C(C)C)[C@@H](C)O)C(C)C)[C@@H](C)O)[C@@H](C)O` (H-LVVLATATPPGSVTV-OH; N-terminus and C-terminus assumed), the 50% inhibitory concentration (IC50) is 4230 nM at DRB1*0301, 4 nM on DRB1*0401 and 73 nM at DRB1*0101.
